# Data as given in patent US7608581B2, “Biofunctional, antimicrobial coatings for medical devices” (Affinergy, Inc., priority 2004, dated 2009).
# Conditions: as compared to SEQ ID NO:73 (two cysteines substituted by serine)
sequence,measurement,value
SDKSHKHWYSYESKYGGS [SEQ ID NO:74],reduction in binding affinity,10 fold
